Test results as given in the supplement of paper PMC5908809.

Legend:
NK-YS (IL-2 2.5 ng/mL) [1] = assay: drug sensitivity score (DSS) (DSS units); higher = more sensitive; extreme values may be limits of the assay; conditions: 72 h
[2] = tested on: normal primary NK cells, pool 2 (3 donors) (IL-2 2.5 ng/mL); assay: as above; conditions: 72 h
NK-92 (IL-2 2.5 ng/mL) [3] = assay: as above; conditions: 72 h
KAI3 (IL-2 2.5 ng/mL) [4] = assay: as above; conditions: 72 h
YT (IL-2 2.5 ng/mL) [5] = assay: as above; conditions: 72 h
[6] = tested on: normal primary NK cells, pool 1 (3 donors), resting (IL-2 0 ng/mL); assay: as above; conditions: 72 h
NKL (IL-2 2.5 ng/mL) [7] = assay: as above; conditions: 72 h
[8] = tested on: normal primary NK cells, pool 1 (3 donors) (IL-2 2.5 ng/mL); assay: as above; conditions: 72 h
[9] = tested on: normal primary NK cells, pool 3 (3 donors) (IL-2 2.5 ng/mL); assay: as above; conditions: 72 h
IMC-1 (IL-2 20 ng/mL) [10] = assay: as above; conditions: 72 h
SNK-6 (IL-2 2.5 ng/mL) [11] = assay: as above; conditions: 72 h
KHYG-1 (IL-2 2.5 ng/mL) [12] = assay: as above; conditions: 72 h
DERL-7 (IL-2 2.5 ng/mL) [13] = assay: as above; conditions: 72 h
[14] = tested on: normal NK cells expanded with K562-aAPC; assay: as above; conditions: 72 h; IL-2 2.5 ng/mL
Method: (§1)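 Drug sensitivity and resistance testing on K562-aAPC-expanded normal NK cells: 5 concentrations (10-fold steps over a 10,000-fold range), 72 h at 37 °C, viability by CellTiter-Glo normalised to DMSO and benzethonium chloride controls; DSS from the fitted curve.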

NK-YS (IL-2 2.5 ng/mL) [15] = assay: percent inhibition of viability; higher = more inhibition; conditions: 72 h
[16] = tested on: normal primary NK cells, pool 2 (3 donors) (IL-2 2.5 ng/mL); assay: as above; conditions: 72 h
NK-92 (IL-2 2.5 ng/mL) [17] = assay: as above; conditions: 72 h
KAI3 (IL-2 2.5 ng/mL) [18] = assay: as above; conditions: 72 h
YT (IL-2 2.5 ng/mL) [19] = assay: as above; conditions: 72 h
[20] = tested on: normal primary NK cells, pool 1 (3 donors), resting (IL-2 0 ng/mL); assay: as above; conditions: 72 h
NKL (IL-2 2.5 ng/mL) [21] = assay: as above; conditions: 72 h
[22] = tested on: normal primary NK cells, pool 1 (3 donors) (IL-2 2.5 ng/mL); assay: as above; conditions: 72 h
[23] = tested on: normal primary NK cells, pool 3 (3 donors) (IL-2 2.5 ng/mL); assay: as above; conditions: 72 h
IMC-1 (IL-2 20 ng/mL) [24] = assay: as above; conditions: 72 h
SNK-6 (IL-2 2.5 ng/mL) [25] = assay: as above; conditions: 72 h
KHYG-1 (IL-2 2.5 ng/mL) [26] = assay: as above; conditions: 72 h
DERL-7 (IL-2 2.5 ng/mL) [27] = assay: as above; conditions: 72 h
[28] = tested on: normal NK cells expanded with K562-aAPC; assay: as above; conditions: 72 h, IL-2 2.5 ng/mL
Method: as §1

O=S(=O)(c1cccc2cnccc12)N1CCCNCC1 [Fasudil] (max concentration tested 50000 nM)
Conditions | drug sensitivity score
DERL-7 (IL-2 2.5 ng/mL) [13] | 2.67
IMC-1 (IL-2 20 ng/mL) [10] | 0
KAI3 (IL-2 2.5 ng/mL) [4] | 5.22
KHYG-1 (IL-2 2.5 ng/mL) [12] | 2.15
NK-92 (IL-2 2.5 ng/mL) [3] | 5.03
NK-YS (IL-2 2.5 ng/mL) [1] | 0.3
NKL (IL-2 2.5 ng/mL) [7] | 1.12
SNK-6 (IL-2 2.5 ng/mL) [11] | 0.22
YT (IL-2 2.5 ng/mL) [5] | 4.32
[2] | 6.25
[6] | 0.88
[8] | 4.47
[9] | 2.91
[14] | 1.35

percent inhibition of viability [%]
Conditions | 5 nM | 50 nM | 500 nM | 5000 nM | 50000 nM
DERL-7 (IL-2 2.5 ng/mL) [27] | -1.59 | 2.77 | 2.04 | 10.3 | 31.5
IMC-1 (IL-2 20 ng/mL) [24] | -3.69 | 1.08 | -1.1 | -3.21 | -0.77
KAI3 (IL-2 2.5 ng/mL) [18] | -9.98 | -12.1 | -8.77 | 16.4 | 52.6
KHYG-1 (IL-2 2.5 ng/mL) [26] | -1.86 | -2.81 | -0.3 | 5.17 | 30.2
NK-92 (IL-2 2.5 ng/mL) [17] | -0.3 | -5 | -7.96 | 16.5 | 50
NK-YS (IL-2 2.5 ng/mL) [15] | -10.2 | -12.7 | -8.89 | -1.5 | 17.1
NKL (IL-2 2.5 ng/mL) [21] | -10.3 | -10.6 | -5.56 | 1.78 | 24
SNK-6 (IL-2 2.5 ng/mL) [25] | -14.4 | -9.67 | -10.4 | -26.7 | 19.7
YT (IL-2 2.5 ng/mL) [19] | -0.42 | -0.99 | 2.43 | 9.94 | 50.6
[16] | -9.61 | 4.29 | 4.21 | 9.95 | 82.7
[20] | -18 | 5.15 | -1.43 | 5.51 | 16.6
[22] | -14.3 | 13.1 | 11.4 | 15.1 | 52.8
[23] | -8.61 | 9.41 | 3.96 | -0.18 | 54.6
[28] | -7 | -8.84 | -5.88 | 5.82 | 20.5

CC(C)(C)NC(=O)[C@H]1CC[C@H]2[C@@H]3CC[C@H]4NC(=O)C=C[C@]4(C)[C@H]3CC[C@]12C [Finasteride] (max concentration tested 10000 nM)
Conditions | drug sensitivity score
DERL-7 (IL-2 2.5 ng/mL) [13] | 0.06
IMC-1 (IL-2 20 ng/mL) [10] | 1.45
KAI3 (IL-2 2.5 ng/mL) [4] | 1.87
KHYG-1 (IL-2 2.5 ng/mL) [12] | 0.04
NK-92 (IL-2 2.5 ng/mL) [3] | 2.97
NK-YS (IL-2 2.5 ng/mL) [1] | 0.05
NKL (IL-2 2.5 ng/mL) [7] | 2.88
SNK-6 (IL-2 2.5 ng/mL) [11] | 0
YT (IL-2 2.5 ng/mL) [5] | 1.11
[2] | 0.04
[6] | 0.89
[8] | 0
[9] | 0
[14] | 0.32

percent inhibition of viability [%]
Conditions | 1 nM | 10 nM | 100 nM | 1000 nM | 10000 nM
DERL-7 (IL-2 2.5 ng/mL) [27] | 8.57 | -6.64 | 5.89 | -0.19 | 12.4
IMC-1 (IL-2 20 ng/mL) [24] | -6.06 | -4.68 | -1.34 | 2.37 | 27.1
KAI3 (IL-2 2.5 ng/mL) [18] | 2.67 | 5.19 | 10.5 | 4.13 | 28.6
KHYG-1 (IL-2 2.5 ng/mL) [26] | -6.44 | -5.37 | 3.63 | 2.04 | 10.9
NK-92 (IL-2 2.5 ng/mL) [17] | -2.71 | -10.9 | 0.46 | 4.24 | 44.5
NK-YS (IL-2 2.5 ng/mL) [15] | -10.4 | -1.41 | -5.34 | 5.54 | 10.5
NKL (IL-2 2.5 ng/mL) [21] | 5.94 | -9.09 | 10.7 | 13 | 34.2
SNK-6 (IL-2 2.5 ng/mL) [25] | -3.02 | -28.7 | -17.3 | -25.3 | -11.3
YT (IL-2 2.5 ng/mL) [19] | 4.41 | -7.13 | 5.2 | -3.12 | 30.2
[16] | -2.14 | -1.25 | 3.98 | -1.8 | 12.4
[20] | 1.92 | 14 | 3.85 | 6.98 | 20.4
[22] | -9.53 | 1.23 | 3.62 | -7.18 | 3.28
[23] | 1.72 | -0.73 | 15.2 | -6.78 | 1.67
[28] | -10.9 | -11.1 | -5.78 | 1.82 | 14.1
